Experimental data: patent publication US4342775A, “3-(1-Imidazolyl)-derivatives of 2,3-dihydro-4H-1-benzopyran” (Farmitalia Carlo Erba S.p.A., priority 1980, dated 1982)

Assays:
[1] = test system: Icem: CER (SPF Caw) male rats fed hypercholesterolaemic diet; test: Experiment No. 1: serum lipids in rats fed hypercholesterolaemic diet; assay type: in vivo, rat; conditions: 50 mg/kg/os for 4 days, *** p < 0.01
Method: (§1) The activity of the compounds of the invention was evaluated on groups of Icem: CER (SPF Caw) male rats either fed for six days with hypercholesterolaemic diet according to C. E. Day [Schurr P. E., Schultz H. R., Day C. E. (Eds) Atherosclerosis and drug discovery--Plenum Pub. Corp., 217 (1976)] (Experiment No. 1) or fed standard diet Altromin (Experiment No. 2). "Altromin" is a trade mark.
(§2) The compounds were suspended in "Methocel" (methyl cellulose, a 0.5% suspension in water) and administered by stomach tube at the dose of 50 mg/kg for 4 days.
(§3) Groups of animals were treated with the suspending agent only (control groups).
(§4) The total serum cholesterol was determined with the method of Trinder P. J. [J. Clin. Pathol., 22, 246 (1969)].
(§5) The total serum HDL cholesterol was determined according to Demacker P. N. M. [Clin. Chem., 23, 1238, (1977)]. The total β-lipoprotein cholesterol was determined by difference between total serum cholesterol and HDL cholesterol.
Statistical analysis in experiment No. 1 was performed by the Student's test for independent samples or by the Cochran's t test when the variances were not homogeneous at the F ratio test [Bliss C. I.--Statistics in Biology, Vol. 1, page 213--Mc Graw Hill Book Company, New York, 1967; Cochran W. G., Cox G. M.--Experimental designs--J. Wiley e Sons Inc., New York, II Ed. (1968) page 100].
The Table 1 reports the values of serum total cholesterol and total HDL cholesterol and ratio between α and β lipoprotein total cholesterol from animals fed hypercholesterolaemic diet and treated with two compounds of the invention: 3-(1-imidazolyl)-2,3-dihydro-6-chloro-4H-1-benzopyran-4-one: compound A, and 3-(1-imidazolyl)-2,3-dihydro-6-chloro-4H-1-benzopyran-4-ol (trans isomer): compound B, in comparison with the values of the same variables in controls.

[2] = test system: Icem: CER (SPF Caw) male rats fed standard diet Altromin; test: Experiment No. 2: serum lipids in rats fed standard diet Altromin; assay type: in vivo, rat; conditions: 50 mg/kg/os for 4 days; for Serum HDL total cholesterol, mean ± S.E.: ** p < 0.05; for Serum triglycerides, mean ± S.E. / Total serum cholesterol, mean ± S.E. / α/β lipoprotein total cholesterol, mean: *** p < 0.01
Method: as §1, §2, §3, §4
The serum triglycerides were determined with the method of Mendez J. [J. Clin. Chem., 21, 768, (1975)].
as §5
W.--J. Amer. Stat. Ass., 50, 1096 (1955)]. Taking in account the ratio between α and β lipoprotein cholesterol it was necessary to make the variances homogeneous by a transformation of the values (√x).

[3] = test system: collagen-induced platelet aggregation; test: in vitro collagen-induced platelet aggregation in platelet rich plasma (method of Born); assay type: cell-based; conditions: final 25 mcg/ml; induced by 2 mcg/ml collagen; Guinea pig platelet rich plasma
Method: The compounds of the invention are also endowed with blood platelet-antiaggregating activity. This activity was evaluated e.g. "in vitro" on the basis of the ability of the test compounds to inhibit the collagen-induced platelet aggregation in Guinea pig platelet rich plasma according to the method of Born "Born G.V.R.--Nature, […] (1962)].

| SMILES | Serum HDL total cholesterol, mean ± S.E. [1] | Total serum cholesterol, mean ± S.E. [1] | α/β lipoprotein cholesterol, mean ± S.E. [1] | Serum HDL total cholesterol, mean ± S.E. [2] | Serum triglycerides, mean ± S.E. [2] | Total serum cholesterol, mean ± S.E. [2] | α/β lipoprotein total cholesterol, mean [2] | inhibition of platelet aggregation [3] |
| --- | --- | --- | --- | --- | --- | --- | --- | --- |
| O[C@H]1c2cc(Cl)ccc2OC[C@@H]1n1ccnc1 (relative stereo) [Compound B, 3-(1-imidazolyl)-2,3-dihydro-6-chloro-4H-1-benzopyran-4-ol (trans isomer)] | 47.6 ± 2.4 mg/100 ml | 184.4 ± 19.7 mg/100 ml | 0.3664 ± 0.055 | 50.3 ± 1.7 mg/100 ml | 90.6 ± 6.1 mg/100 ml | 72.4 ± 2.3 mg/100 ml | 1.432 |  |
| O=C1c2cc(Cl)ccc2OCC1n1ccnc1 (stereo not drawn) [Compound A, 3-(1-imidazolyl)-2,3-dihydro-6-chloro-4H-1-benzopyran-4-one] | 44.3 ± 1.3 mg/100 ml | 133.2 ± 10.1 mg/100 ml | 0.548 ± 0.052 | 52.3 ± 2.5 mg/100 ml | 77.2 ± 7.0 mg/100 ml | 73.4 ± 3.0 mg/100 ml | 1.450 | inhibit wholly |
